Test results published in publication PMC5051273 (Phytotherapy research : PTR, 2015).
pIC50: −log10 of the molar value.

Molecular target: mammalian target of rapamycin (mTOR) (Homo sapiens, UniProt P42345)
Assay: Invitrogen Z'-LYTE kinase assay, five concentrations
Type: biochemical

- pIC50: 6.15
SMILES: C/C=C(/C=O)[C@@H](CC=O)CC(=O)OCCc1ccc(O)cc1 [oleocanthal]
